# From US8877748B2, “Heterocyclic fused anthraquinone derivatives, manufacturing method and pharmaceutical composition using thereof” (National Defense Medical Center, priority 2012, dated 2014)
# Columns and labels:
# [1] = test system: DU145; test: NCI one-dose screening, prostate cancer DU145; format: cell-based, human; conditions: 10 μM
# [2] = test system: SK-MEL-2; test: NCI one-dose screening, melanoma SK-MEL-2; format: cell-based, human; conditions: 10 μM
# [3] = test system: UACC-257; test: NCI one-dose screening, melanoma UACC-257; format: cell-based, human; conditions: 10 μM
# [4] = test system: MOLT-4; test: NCI one-dose screening, leukemia MOLT-4; format: cell-based, human; conditions: 10 μM
# [5] = test system: human tumor cell lines; test: NCI one-dose screening, Mean / Delta / Range of growth percent over all tested cell lines; format: cell-based; conditions: 10 μM
# [6] = test system: SF-539; test: NCI one-dose screening, CNS cancer SF-539; format: cell-based, human; conditions: 10 μM
# [7] = test system: HCC-2998; test: NCI one-dose screening, colon cancer HCC-2998; format: cell-based, human; conditions: 10 μM
# [8] = test system: NCI-H226; test: NCI one-dose screening, non-small cell lung cancer NCI-H226; format: cell-based, human; conditions: 10 μM
# [9] = test system: M14; test: NCI one-dose screening, melanoma M14; format: cell-based, human; conditions: 10 μM
# [10] = test system: UACC-62; test: NCI one-dose screening, melanoma UACC-62; format: cell-based, human; conditions: 10 μM
# [11] = test system: UO-31; test: NCI one-dose screening, renal cancer UO-31; format: cell-based, human; conditions: 10 μM
# [12] = test system: SNB-75; test: NCI one-dose screening, CNS cancer SNB-75; format: cell-based, human; conditions: 10 μM
# [13] = test system: SF-295; test: NCI one-dose screening, CNS cancer SF-295; format: cell-based, human; conditions: 10 μM
# [14] = test system: HS 578-T; test: NCI one-dose screening, breast cancer HS 578-T; format: cell-based, human; conditions: 10 μM; Breast cancer
# [15] = test system: NCI-H23; test: NCI one-dose screening, non-small cell lung cancer NCI-H23; format: cell-based, human; conditions: 10 μM
# [16] = test system: MDA-MB-468; test: NCI one-dose screening, breast cancer MDA-MB-468; format: cell-based, human; conditions: 10 μM
# [17] = test system: LOX IMVI; test: NCI one-dose screening, melanoma LOX IMVI; format: cell-based, human; conditions: 10 μM
# [18] = test system: MCF7; test: NCI one-dose screening, breast cancer MCF7; format: cell-based, human; conditions: 10 μM
# [19] = test system: 786-O; test: NCI one-dose screening, renal cancer 786-O; format: cell-based, human; conditions: 10 μM
# [20] = test system: SNB-19; test: NCI one-dose screening, CNS cancer SNB-19; format: cell-based, human; conditions: 10 μM
# [21] = test system: MDA-MB-231/ATCC; test: NCI one-dose screening, breast cancer MDA-MB-231/ATCC; format: cell-based, human; conditions: 10 μM
# [22] = test system: HT29; test: NCI one-dose screening, colon cancer HT29; format: cell-based, human; conditions: 10 μM
# [23] = test system: OVCAR-3; test: NCI one-dose screening, ovarian cancer OVCAR-3; format: cell-based, human; conditions: 10 μM
# [24] = test system: SF-268; test: NCI one-dose screening, CNS cancer SF-268; format: cell-based, human; conditions: 10 μM
# [25] = test system: SR; test: NCI one-dose screening, leukemia SR; format: cell-based, human; conditions: 10 μM
# [26] = test system: A549/ATCC; test: NCI one-dose screening, non-small cell lung cancer A549/ATCC; format: cell-based, human; conditions: 10 μM
# [27] = test system: SN12C; test: NCI one-dose screening, renal cancer SN12C; format: cell-based, human; conditions: 10 μM
# [28] = test system: IGROV1; test: NCI one-dose screening, ovarian cancer IGROV1; format: cell-based, human; conditions: 10 μM
# [29] = test system: CAKI-1; test: NCI one-dose screening, renal cancer CAKI-1; format: cell-based, human; conditions: 10 μM
# [30] = test system: T-47D; test: NCI one-dose screening, breast cancer T-47D; format: cell-based, human; conditions: 10 μM
# [31] = test system: HCT-15; test: NCI one-dose screening, colon cancer HCT-15; format: cell-based, human; conditions: 10 μM
# [32] = test system: COLO 205; test: NCI one-dose screening, colon cancer COLO 205; format: cell-based, human; conditions: 10 μM
# [33] = test system: OVCAR-8; test: NCI one-dose screening, ovarian cancer OVCAR-8; format: cell-based, human; conditions: 10 μM
# [34] = test system: MALME-3M; test: NCI one-dose screening, melanoma MALME-3M; format: cell-based, human; conditions: 10 μM
# [35] = test system: NCI-H460; test: NCI one-dose screening, non-small cell lung cancer NCI-H460; format: cell-based, human; conditions: 10 μM
# [36] = test system: NCI-H522; test: NCI one-dose screening, non-small cell lung cancer NCI-H522; format: cell-based, human; conditions: 10 μM
# [37] = test system: RXF, 393; test: NCI one-dose screening, renal cancer RXF, 393; format: cell-based, human; conditions: 10 μM
# [38] = test system: U251; test: NCI one-dose screening, CNS cancer U251; format: cell-based, human; conditions: 10 μM
# [39] = test system: HOP-92; test: NCI one-dose screening, non-small cell lung cancer HOP-92; format: cell-based, human; conditions: 10 μM
# [40] = test system: SK-MEL-28; test: NCI one-dose screening, melanoma SK-MEL-28; format: cell-based, human; conditions: 10 μM
# [41] = test system: SK-MEL-5; test: NCI one-dose screening, melanoma SK-MEL-5; format: cell-based, human; conditions: 10 μM
# [42] = test system: SK-OV-3; test: NCI one-dose screening, ovarian cancer SK-OV-3; format: cell-based, human; conditions: 10 μM
# [43] = test system: BT-549; test: NCI one-dose screening, breast cancer BT-549; format: cell-based, human; conditions: 10 μM
# [44] = NCI one-dose screening, renal cancer A489; format: cell-based, human; conditions: 10 μM
# [45] = test system: KM12; test: NCI one-dose screening, colon cancer KM12; format: cell-based, human; conditions: 10 μM
# [46] = test system: TK-10; test: NCI one-dose screening, renal cancer TK-10; format: cell-based, human; conditions: 10 μM
# [47] = test system: PC-3 prostate cancer cell line; test: SRB assay cell viability, PC-3 prostate cancer cell line; format: cell-based, human; conditions: Homo sapiens, PC-3 prostate cancer cell line, Table II prints no unit, μM printed, read-out: SRB assay: 50% inhibition of cancer cell proliferation of sample concentration (IC50) of PC-3 prostate cancer cell line
# [48] = test system: ACHN; test: NCI one-dose screening, renal cancer ACHN; format: cell-based, human; conditions: 10 μM
# [49] = test system: HOP-62; test: NCI one-dose screening, non-small cell lung cancer HOP-62; format: cell-based, human; conditions: 10 μM
# [50] = test system: MDA, -MB-435; test: NCI one-dose screening, breast cancer MDA, -MB-435; format: cell-based, human; conditions: 10 μM; listed under Melanoma
# [51] = test system: PC-3; test: NCI one-dose screening, prostate cancer PC-3; format: cell-based, human; conditions: 10 μM
# [52] = test system: OVCAR-5; test: NCI one-dose screening, ovarian cancer OVCAR-5; format: cell-based, human; conditions: 10 μM
# [53] = test system: EKVX; test: NCI one-dose screening, non-small cell lung cancer EKVX; format: cell-based, human; conditions: 10 μM
# [54] = test system: NCl/ADR-RES; test: NCI one-dose screening, breast cancer NCl/ADR-RES; format: cell-based, human; conditions: 10 μM; listed under Ovarian cancer
# [55] = test system: K562cell line; test: NCI one-dose screening, leukemia K562; format: cell-based, human; conditions: 10 μM
# [56] = test system: PRMI-8226 cell line; test: NCI one-dose screening, leukemia PRMI-8226; format: cell-based, human; conditions: 10 μM
# [57] = test system: HCT-116; test: NCI one-dose screening, colon cancer HCT-116; format: cell-based, human; conditions: 10 μM
# [58] = test system: HL-60, TB; test: NCI one-dose screening, leukemia HL-60, TB; format: cell-based, human; conditions: 10 μM
smiles,measurement,setting,value
"CSc1ccc(Sc2cc3c(c4nsnc24)C(=O)c2ccccc2C3=O)cc1 [C43, 4-(4-(methylthio)phenylthio)anthra[2,1-c] [1,2,5]thiadiazol-6,11-dione]",Growth Percent DU145,[1],101.05%
same,Growth Percent SK-MEL-2,[2],89.27%
same,Growth Percent UACC-257,[3],109.51%
same,Growth Percent MOLT-4,[4],59.93%
same,Growth Percent Delta,[5]; delta over all cell lines,40.76%
same,Growth Percent Mean,[5]; mean over all cell lines,96.80%
same,Growth Percent Range,[5]; range over all cell lines,72.06%
same,Growth Percent SF-539,[6],96.48%
same,Growth Percent HCC-2998,[7],111.01%
same,Growth Percent NCI-H226,[8],79.69%
same,Growth Percent M14,[9],107.55%
same,Growth Percent UACC-62,[10],110.99%
same,Growth Percent UO-31,[11],67.56%
same,Growth Percent SNB-75,[12],75.08%
same,Growth Percent SF-295,[13],98.897%
same,Growth Percent HS 578T,[14],96.47%
same,Growth Percent NCI-H23,[15],81.49%
same,Growth Percent MDA-MB-468,[16],82.25%
same,Growth Percent LOX IMVI,[17],68.98%
same,Growth Percent MCF7,[18],82.87%
same,Growth Percent 786-0,[19],109.83%
same,Growth Percent SNB-19,[20],101.61%
same,Growth Percent MDA-MB-231/ATCC,[21],78.80%
same,Growth Percent HT29,[22],102.26%
same,Growth Percent OVCAR-3,[23],102.89%
same,Growth Percent SF-268,[24],89.67%
same,Growth Percent SR,[25],96.31%
same,Growth Percent A549/ATCC,[26],104.69%
same,Growth Percent SN12C,[27],98.04%
same,Growth Percent IGROV1,[28],95.67%
same,Growth Percent CAKI-1,[29],99.44%
same,Growth Percent T-47D,[30],86.56%
same,Growth Percent HCT-15,[31],111.56%
same,Growth Percent COLO 205,[32],117.30%
same,Growth Percent OVCAR-8,[33],97.37%
same,Growth Percent MALME-3M,[34],104.58%
same,Growth Percent NCI-H460,[35],106.20%
same,Growth Percent NCI-H522,[36],95.39%
same,Growth Percent RXF 393,[37],106.98%
same,Growth Percent U251,[38],103.89%
same,Growth Percent HOP-92,[39],04.31%
same,Growth Percent SK-MEL-28,[40],119.66%
same,Growth Percent SK-MEL-5,[41],101.45%
same,Growth Percent SK-OV-3,[42],102.46%
same,Growth Percent BT-549,[43],107.82%
same,Growth Percent A498,[44],56.04%
same,Growth Percent KM12,[45],100.42%
same,Growth Percent TK-10,[46],128.10%
same,IC50,[47],> 15 µM
same,Growth Percent ACHN,[48],103.64%
same,Growth Percent HOP-62,[49],102.09%
same,Growth Percent MDA-MB-435,[50],118.40%
same,Growth Percent PC-3,[51],78.37%
same,Growth Percent OVCAR-5,[52],108.31%
same,Growth Percent EKVX,[53],113.82%
same,Growth Percent NCI/ADR-RES,[54],91.79%
same,Growth Percent K562,[55],67.50%
same,Growth Percent RPMI-8226,[56],88.58%
same,Growth Percent HCT-116,[57],101.97%
same,Growth Percent HL-60(TB),[58],105.25%
